Data set [1] concerns B16 melanoma cells. Briefly: Artificial metastasis model of B16 mice melanoma (Example 6). The format is in vivo, C57BL/6 mouse. How it is done:
3) An metastasis model of B16 mouse melanoma is constructed by direct injection of B16 cells into tail vein in C57BL/6 mouse, and the ability of a drug for inhibiting tumor metastasis is determined by counting the number of the metastatic tumors on lung. Such a model mimics the metastatic process of cancer cells from the circulatory system to the target organ, which is more similar with the metastatic way of tumor cells in the bodies of patients with advanced cancer.
The ability of (S)2-(4′-methyl-3′-nitrobenzoylamino)-3-phenylpropionic acid for inhibiting tumor metastasis in vivo was tested by artificial metastasis model of B16 mice melanoma.
1) Mice grouping: C57BL/6 of SPF grade, 5 weeks old, 18˜22 g, 8 mice for each group, half male and half female;
2) The mother liquid of (S)2-(4′-methyl-3′-nitrobenzoylamino)-3-phenylpropionic acid for the dosage form administrated by intravenous injection was diluted to 0.8 mg/mL, 0.2 mg/mL, 0.05 mg/mL by adding sterilized water. […]
3) B16 cells in logarithmic growth phase were digested with 0.05% typsine for 1 min, and after centrifugation at 1000 rpm for 5 min, the supernatant was discarded and the cells were resuspended and counted. […]
5) After the completion of the experiment, the mice were sacrificed and the lungs were taken, the number and size of melanomas on the lungs was counted, and the weight of the lungs were weighed;

The test system of data set [2] is 4T1-luciferase cells. Briefly: In situ model of breast cancer in nude mouse, lung metastasis by in vivo imaging (Example 7). The arrangement: species or system nude mice. To be noted: 20 mg/kg and 1 mg/kg tail vein, twice a day, 21 days; P<0.01. How it is done:
4) An in situ breast cancer model is constructed by in situ inoculating nude mice with 4T1 cells which are stably transfected with Luciferase, and the number of metastatic tumors on the lung is detected by in vivo imaging system. Such a model mimics the occurrence and metastasis of breast cancer.
The ability of (S)2-(4′-methyl-3′-nitrobenzoylamino)-3-phenylpropionic acid for inhibiting tumor metastasis in vivo was tested by in situ model of breast cancer in nude mouse.
1) Mice grouping: Nude female mice of SPF grade, 5 weeks old, 18˜22 g, 8 mice for each group;
2) The mother liquid of (S)2-(4′-methyl-3′-nitrobenzoylamino)-3-phenylpropionic acid (TCI04) for the dosage form administrated by intravenous injection was diluted to 2 mg/mL, 0.1 mg/mL by adding sterilized water. The dosage for administration in mice was as follows, high dosage of 20 mg/kg; low dosage of 1 mg/kg. […]
3) 4T1-luciferase cells in logarithmic growth phase were digested with 0.05% typsine for 1 min, after centrifugation at 1000 rpm for 5 min, the supernatant was discarded and the cells were resuspended and counted. […]
5) After the completion of the administration, the mice were detected by in vivo imaging system for the condition of tumor metastasis and immediately sacrificed; the lungs alone were detected by the in vivo imaging system for the light intensity to determine the number of tumor metastasis.

Data set [3] relates to Kunming mice. The data set can be described thus: Acute toxicity assay in mice, oral administration (Example 10). The note with it: Kunming, mouse, in vivo, 14 days. The procedure:
(§1) The medium lethal dose of (S)2-(4′-methyl-3′-nitrobenzoylamino)-3-phenylpropionic acid via oral administration was tested by acute toxicity assay in mice.
(§2) 1) Mice grouping: Kunming mice of clean grade, 10 weeks old, 30˜40 g body weight, 5 mice for each group, and all of the mice were males or females.
(§3) 2) 3.2 g (S)2-(4′-methyl-3′-nitrobenzoylamino)-3-phenylpropionic acid was added to 8 mL solution of 3% sodium carboxymethylcellulose solution, and the mixture was homogenated for 5 min at 30000 rpm with a homogenizer. Each mouse undergone administration of intragastric infusion with 0.5 ml at a dosage of 5000 mg/kg. […] If the death number was […], the LD50 was regarded as more than 5000 mg/kg; if the death number equals to or was more than 3, the main experiments will be performed. The experiment was repeated for 3 times and the result was recorded as follows: […]

Assay in data set [4]: as above
To be noted: both sexes, mouse, in vivo, 5000 mg/kg; oral administration, Kunming mice. The procedure: as §1, §2, §3

In data set [5] the test system is human breast cancer cell MDA-MB-231. Briefly: Scratch assay, migration of MDA-MB-231 (Example 3). The format is cell-based. To be noted: 0.5, 1, 2, 4 μmol/L, 0-24 h. The procedure: The inhibiting ability of (S)2-(4′-methyl-3′-nitrobenzoylamino)-3-phenylpropionic acid for the migration of human breast cancer cell MDA-MB-231 was tested by scratch assay.
The MDA-MB-231 cells in logarithmic growth phase were plated in the 6-well plate with the density of 1×10^6/3 mL, and the drug was added after 12 h, with 100 μL per well. The final concentrations of (S)2-(4′-methyl-3′-nitrobenzoylamino)-3-phenylpropionic acid (TCI04) were 0.5, 1, 2, and 4 μmol/L, respectively. The negative control was 100 μL sterilized water with 2% DMSO and the positive control was 1 μmol/L 4-methyl-3-nitrobenzoic acid (TCI01). After 12 h, the culture medium was removed, and the plate was washed 3 times with PBS, and 3 ml culture medium without fetal bovine serum and 100 μL drug (concentration was the same as above) per well were added. 12 h later, 10 μL tips were used to scratch, and after washing 4 times with PBS, 3 ml culture medium without fetal bovine serum per well was added. The distance of cell migration was recorded every 3 h under the inverted microscope, and the photos were taken at 0 h and 24 h.

The record followed here is patent publication US10512627B2, “Anti-tumor compound and the medical use thereof” (Tianjin Medical University Cancer Institute and Hospital, priority 2014, dated 2019).

Take `Cc1ccc(C(=O)N[C@@H](Cc2ccccc2)C(=O)O)cc1[N+](=O)[O-]` [(S)2-(4′-methyl-3′-nitrobenzoylamino)-3-phenylpropionic acid]: in data set [1] (8, 2, 0.5 mg/kg tail vein, twice a day, 21 days, P<0.01), the “tumor numbers on the lungs and lung weights compared with the negative control” value was “very significant difference”. Further, the “inhibition of metastasis of B16 mouse melanoma cell in C57BL/6 mouse” value in data set [1] (tail vein administration of 0.5 mg/kg) is given as “significantly inhibit”. In data set [2], the “light intensity of the whole lung vs negative control” value is given as “significantly weaker than the negative control”. In data set [3] (female), the “Death number, Female mice, The first test” value stood at 2; the “Death number, Female mice, The second test” value worked out at 2; the “Death number, Female mice, The third test” value was 1. Also, in data set [3] (male), the “Death number, Male mice, The first test” value was determined as 2; the “Death number, Male mice, The second test” value is listed as 1; the “Death number, Male mice, The third test” value was 1. The same compound showed a median lethal dose (LD50) at 14 days in data set [4] greater than 5000 mg/kg. In addition, the “inhibition of migration ability (coalescence speed of cell scratch vs negative control)” value in data set [5] is given as “significantly inhibited”.

For orientation: LD50 means the dose expected to kill half of the subjects tested. Low values mean greater toxicity, high ones lower toxicity.
